For this assay, the target named is Histone-lysine N-methyltransferase EZH2 [Y641N] (UniProt Q15910, Y641N). The assay can be described thus: Test on EZH2 (Y641F) and EZH2 (Y641N) Inhibitory Activities.

The structures appear in SMILES notation.

Results on one compound are retold here after BindingDB's records for patent US12390472 (Evopoint Biosciences, 2025).

The IC50 is the point on the concentration scale where inhibition reaches its midpoint. Low values mean greater potency, high ones weaker potency.

Chain of Histone-lysine N-methyltransferase EZH2 [Y641N] (Q15910 whole entry Y641N): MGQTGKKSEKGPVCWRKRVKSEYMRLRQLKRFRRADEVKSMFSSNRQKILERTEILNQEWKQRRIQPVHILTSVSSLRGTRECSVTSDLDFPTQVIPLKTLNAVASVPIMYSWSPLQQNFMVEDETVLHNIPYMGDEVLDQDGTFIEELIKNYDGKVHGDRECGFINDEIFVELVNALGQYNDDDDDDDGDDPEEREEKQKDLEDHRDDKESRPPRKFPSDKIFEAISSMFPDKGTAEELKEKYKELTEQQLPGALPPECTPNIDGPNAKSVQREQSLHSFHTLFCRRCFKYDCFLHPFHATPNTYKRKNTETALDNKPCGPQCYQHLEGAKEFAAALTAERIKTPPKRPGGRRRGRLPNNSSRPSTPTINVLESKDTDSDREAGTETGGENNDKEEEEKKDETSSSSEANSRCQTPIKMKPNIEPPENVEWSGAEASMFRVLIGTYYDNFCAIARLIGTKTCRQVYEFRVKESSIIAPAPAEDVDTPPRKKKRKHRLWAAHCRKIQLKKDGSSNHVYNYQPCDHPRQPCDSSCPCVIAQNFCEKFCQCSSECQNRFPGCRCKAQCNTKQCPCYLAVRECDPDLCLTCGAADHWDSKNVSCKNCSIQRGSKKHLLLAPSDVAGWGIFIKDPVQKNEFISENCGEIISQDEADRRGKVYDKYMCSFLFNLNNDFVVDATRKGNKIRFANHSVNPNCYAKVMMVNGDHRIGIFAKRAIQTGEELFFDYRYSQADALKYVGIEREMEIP
Description: ProceduresCompounds at different concentrations were dissolved in 100% DMSO and transferred to test plates, and the final concentration of DMSO was 1%. Enzyme solution and substrate SAM solution were prepared with 1-fold reaction buffer (optimized Tris buffer). 5 uL of enzyme solution was added to the test plate and wells only added with 5 uL of reaction buffer were used as negative control wells. […] 5 uL of receptor solution was added and the plate was incubated away from light at room temperature for 60 min. 10 uL of donor solution was added and the plate was incubated away from light at room temperature for 30 min. The endpoint values were read on the Envision and the IC50 was calculated.Data CalculationData were fitted by GraphPad Prism 5 software and inhibition rate was calculated according to equation (1)Inh %=(Max−Signal)/(Max−Min)×100 (1)IC50 was calculated using equation (2)Y=Bottom+(Top−Bottom)/(1+10^((Log IC 50 −X)×Hill Slope))Y: inhibition rate; X: concentration of the compound

On to `CCN(c1cc(O[C@H]2C[C@H](N3CCCCC3)C2)cc(C(=O)NCc2c(CO)cc(C)[nH]c2=O)c1C)C1CCC(F)(F)CC1` [US12390472, Example 95], for which the IC50 came out at 3.1 nM.
